The test system of one data set is rat C6 glioma cells. In words: GDNF production promoting action in rat C6 glioma cells (ELISA of culture supernatant). It counts as cell-based. The conditions noted are these: concentration which causes 50% increase of GDNF relative to the control group, cultured 2 days with test compound, GDNF in culture supernatant by ELISA. Here is the method:
Using rat C6 glioma cells, the GDNF production promoting action of the compound of the present invention was evaluated.
Rat C6 glioma cells (ATCC) were grown in Dulbecco's Modified Eagle's Medium (DMEM) containing 10% FBS (Fetal Bovine Serum) in a collagen type 1 coated 75 cm^2 culture flask (SUMITOMO BAKELITE Co., Ltd.) until near confluent, detached by trypsin treatment and washed once with DMEM containing 10% FBS.
The cells after washing were diluted with 10% FBS-containing DMEM to a concentration of 5×10^4/mL and seeded at 0.3 mL/well in each well of collagen type 1 coated 48 well culture dish (SUMITOMO BAKELITE Co., Ltd.). After 3 days, the culture in the culture dish was placed in a 1% BSA (bovine serum albumin, Sigma)-containing DMEM medium supplemented with various concentrations of test compound, and further cultured for 2 days. The culture supernatant was recovered and preserved at −80° C. until measurement of GDNF.
The content of GDNF in the culture supernatant was measured by the following ELISA Method.
Anti-GDNF antibody (MAB212, R&D) was diluted with TBS (Tris buffered physiological saline: 25 mmol/L Tris-HCl (pH 8.0), 150 mmol/L NaCl) to 2 μg/mL and dispensed at 0.1 mL/well to each well of a 96-well immunoplate. The 96-well immunoplate was incubated overnight at 4° C. and washed once with TBS containing Tween 20 at 0.05% (hereinafter to be abbreviated as TBST). A blocking solution (TBS containing 1% BSA and 5% sucrose) was added at 0.2 mL/well to each well after washing, and the plate was incubated at room temperature for 1 hr., after which each well was washed twice with TBST. The culture supernatant (0.1 mL) of the aforementioned C6 cells was added to each well after washing and the plate was incubated at room temperature for 3 hrs., after which the wells were washed 5 times with TBST. The 500-fold diluted anti-GDNF antibody (G2791, Promega) was added by 0.1 mL to each well after washing, incubated at room temperature for 2 hrs. and washed 5 times with TBST. A 5000-fold diluted horseradish peroxidase-labeled anti-chicken IgY antibody (G1351, Promega) was added at 0.1 mL/well to each well after washing, incubated at room temperature for 2 hrs. and washed 5 times with TBST. A substrate solution (TMB substrate solution, BIO-RAD) was added at 0.1 mL/well to each well after washing and allowed to develop color at room temperature for 8 min. To stop the reaction, 0.1 mL of 1 mol/L phosphoric acid was added to each well in coloring developing reaction. The absorbance of the reaction solution at 450 nm wavelength was measured.
In the same manner as above except the test compound was not used, the ELISA Method was performed and this was used as a control group.
Using various concentrations of GDNF (Promega), ELISA Method was performed in the same manner as above and standard line was prepared.
From the aforementioned absorbance and standard line, GDNF content in a sample was calculated and the concentration (EC50), which causes 50% increase of GDNF relative to the control group was calculated from the regression line.
Background: In an ELISA, binding on a coated surface is turned into a signal by an enzyme label.

The subject of the next data set is PC12 cells. The data set can be described thus: neuroprotective action (neurite network formation) in PC12 cells. It counts as cell-based. The conditions noted are these: test compound 0.3-3.0 μmol/L, two days, DMEM with 0.5% FCS and 2 ng/mL NGF; observed under a microscope. As for the experimental part: Using PC12 cells, the neuroprotective action of the compound of the present invention was evaluated.
PC12 cells were precultured for one day in a DMEM (Dulbecco's Modified Eagle's Medium) culture solution containing 10% FCS (Fetal Calf Serum) in an incubator at 37° C., 5% CO2, and seeded at 5×10^3/well in a 24 well plate (Falcon) in the same medium. After the cells adhered to the bottom surface, the culture was changed to a DMEM culture solution containing 0.5% FCS and 2 ng/mL of NGF (Wako Pure Chemical Industries, Ltd.). After culturing overnight, the test compound was added at a concentration of 0.3-3.0 μmol/L and the cells were cultured for two more days. Gultalaldehyde was added to the cultured to a final concentration of 2% and the cells were fixed for 1 hr., after which stained with a Diff-Quick (International Reagents Corporation). The cells were washed, dried with air and observed under a microscope.

Where [1] appears, read: Rattus norvegicus, C6 glioma, 48 h.

This is an account of results in patent US7423159B2, “Agent for preventing or treating neuropathy” (Takeda Pharmaceutical Company Limited, priority 2002, dated 2008).

In turn, `CCCCC1(CC)COP(=O)(Cc2ccc(NC(=O)/C=C/c3cnn(C)c3-c3ccc(F)cc3)cc2)OC1` (stereo not drawn) [Example 27, (2E)-N-{4-[(5-Butyl-5-ethyl-2-oxide-1,3,2-dioxaphosphinan-2-yl)methyl]phenyl}-3-[5-(4-fluorophenyl)-1-methyl-1H-pyrazol-4-yl]acrylamide] had an EC50 in the data set on rat C6 glioma cells of 0.5 µM.
In general, melting point refers to the temperature of the solid-liquid transition. As for `Cn1ncc(/C=C/C(=O)Nc2ccc(CC3SC(=O)NC3=O)cc2)c1-c1ccc(F)cc1` (stereo not drawn) [Example 60, (2E)-N-{4-[(2,4-Dioxo-1,3-thiazolidin-5-yl)methyl]phenyl}-3-[5-(4-fluorophenyl)-1-methyl-1H-pyrazol-4-yl]acrylamide], the melting point was 149 to 150 °C. The EC50 with rat C6 glioma cells (setting [1]) amounted to 0.8 µM. Besides, in the data set with PC12 cells, the “formation of neurite network” value is on record as “promoted formation of neurite network”.
For the compound `CCOP(=O)(Cc1ccc(NC(=O)/C=C/c2cnn(C)c2-c2ccoc2)cc1)OCC` [Example 147, Diethyl 4-[{(2E)-3-[5-(3-furyl)-1-methyl-1H-pyrazol-4-yl]prop-2-enoyl)amino]benzylphosphonate], the melting point fell in the range of 208 to 210 °C. The same compound came in with an EC50 in the data set with rat C6 glioma cells (setting [1]) of 0.46 µM.
`Cn1ncc(/C=C/C(=O)Nc2ccc(C(O)c3ccccn3)cc2)c1-c1ccc(F)cc1` (stereo not drawn) [Example 49, (2E)-3-[5-(4-Fluorophenyl)-1-methyl-1H-pyrazol-4-yl]-N-{4-[hydroxy(2-pyridinyl)methyl]phenyl}acrylamide] had an EC50 in the data set with rat C6 glioma cells (setting [1]) of 1.6 µM. In addition, in the data set on PC12 cells, the “formation of neurite network” value was “promoted formation of neurite network”.
Compound `Cc1nccn1Cc1ccc(NC(=O)/C=C/c2cnn(C)c2-c2ccc(F)cc2)cc1` [Example 190, (2E)-3-[5-(4-Fluorophenyl)-1-methyl-1H-pyrazol-4-yl]-N-{4-[(2-methyl-1H-imidazol-1-yl)methyl]phenyl}acrylamide] registered a melting point of 232 to 233 °C. The compound further came in with an EC50 with rat C6 glioma cells (setting [1]) of 0.59 µM.
As to `Cc1cccc(C(O)c2ccc(NC(=O)/C=C/c3cnn(C)c3-c3ccc(F)cc3)cc2)n1` (stereo not drawn) [Example 50, (2E)-3-[5-(4-Fluorophenyl)-1-methyl-1H-pyrazol-4-yl]-N-{4-[hydroxy(6-methyl-2-pyridinyl)methyl]phenyl}acrylamide], the EC50 with rat C6 glioma cells (setting [1]) turned out to be 0.4 µM.
Compound `Cn1ncc(/C=C/C(=O)Nc2ccc(Cn3cnc4ccccc43)cc2)c1-c1ccc(F)cc1` [Example 185, (2E)-N-[4-(1H-Benzimidazol-1-ylmethyl)phenyl]-3-[5-(4-fluorophenyl)-1-methyl-1H-pyrazol-4-yl]acrylamide] came in with a melting point of 243 to 244 °C. Moreover, in the data set on rat C6 glioma cells (setting [1]), the EC50 is 0.3 µM. Besides, in the data set on PC12 cells, the “formation of neurite network” value is “promoted formation of neurite network”.
For `CCOP(=O)(Cc1ccc(NC(=O)/C=C/c2cnn(C)c2-c2ccc(Cl)cc2)cc1)OCC` [Example 9, (2E)-3-[5-(4-Chlorophenyl)-1-methyl-1H-pyrazol-4-yl]-N-[4-(diethylphosphonomethyl)phenyl]acrylamide], the melting point was in the range of 217 to 218 °C. Moreover, the EC50 with rat C6 glioma cells (setting [1]) was found to be 2.5 µM.
Compound `CCOP(=O)(Cc1ccc(NC(=O)/C=C/c2snnc2-c2ccc(F)cc2)cc1)OCC` [Example 71, (2E)-N-[4-(Diethylphosphonomethyl)phenyl]-3-[4-(4-fluorophenyl)-1,2,3-thiadiazol-5-yl]acrylamide] yielded a melting point of 173 to 175 °C. The compound also showed an EC50 with rat C6 glioma cells (setting [1]) of 1.7 µM.
In the case of `CCOP(=O)(Cc1ccc(NC(=O)/C=C/c2cncn2-c2ccc(F)cc2)cc1)OCC` [Example 61, (2E)-N-[4-(Diethylphosphonomethyl)phenyl]-3-[1-(4-fluorophenyl)-1H-imidazol-5-yl]acrylamide], the melting point fell in the range of 165 to 166 °C. Also, the EC50 in the data set with rat C6 glioma cells (setting [1]) was determined as 0.4 µM.
In the same order, the values of `COP(=O)(Cc1ccc(NC(=O)/C=C/c2cnn(C)c2-c2ccc(F)cc2)cc1)OC` [Example 1, (2E)-N-[4-(dimethylphosphonomethyl)phenyl]-3-[5-(4-fluorophenyl)-1-methyl-1H-pyrazol-4-yl]acrylamide] are 209 to 210 °C and 0.2 µM.
Consider `Cn1ncc(/C=C/C(=O)Nc2ccc(-n3ccnc3)cc2)c1-c1ccc(F)cc1` [Example 195], for which the EC50 in the data set on rat C6 glioma cells was found to be 0.12 µM.
With `CC(=O)Cc1ccc(NC(=O)/C=C/c2cnn(C)c2-c2ccc(F)cc2)cc1` [Example 121, (2E)-3-[5-(4-Fluorophenyl)-1-methyl-1H-pyrazol-4-yl]-N-[4-(2-oxopropyl)phenyl]acrylamide], the melting point lay in the range of 186 to 187 °C. This compound came in with an EC50 in the data set on rat C6 glioma cells (setting [1]) of 0.18 µM.
For `CCOP(=O)(Cc1ccc(NC(=O)/C=C/c2cnn(C)c2-c2ccc(F)cc2)cc1)OCC` [Example 2, (2E)-N-[4-(Diethylphosphonomethyl)phenyl]-3-[5-(4-fluorophenyl)-1-methyl-1H-pyrazol-4-yl]acrylamide], in the data set with rat C6 glioma cells (setting [1]), the EC50 stood at 0.4 µM. Moreover, in the data set with PC12 cells, the “formation of neurite network” value was “promoted formation of neurite network”.
Compound `CCCC(=O)NCc1ccc(NC(=O)/C=C/c2cnn(C)c2-c2ccc(F)cc2)cc1` [Example 140, (2E)-N-{4-[(Butyrylamino)methyl]phenyl}-3-[5-(4-fluorophenyl)-1-methyl-1H-pyrazol-4-yl]acrylamide] registered a melting point of 259 to 260 °C. In the data set with rat C6 glioma cells (setting [1]), this compound gave an EC50 of 0.22 µM.
Take `CCOP(=O)(Cc1ccc(NC(=O)/C=C/c2cnn(C)c2-c2ccc(OC)cc2)cc1)OCC` [Example 5, (2E)-N-[4-(Diethylphosphonomethyl)phenyl]-3-[5-(4-methoxyphenyl)-1-methyl-1H-pyrazol-4-yl]acrylamide]: the melting point lay within 199 to 200 °C. For the same compound, in the data set with rat C6 glioma cells (setting [1]), the EC50 came out at 1 µM.
As for `Cn1ncc(/C=C/C(=O)Nc2ccc(CCc3cscn3)cc2)c1-c1ccc(F)cc1` [Example 91, (2E)-3-[5-(4-Fluorophenyl)-1-methyl-1H-pyrazol-4-yl]-N-{4-[2-(1,3-thiazol-4-yl)ethyl]phenyl}acrylamide], the melting point lay in the range of 211 to 212 °C. The compound also gave an EC50 in the data set with rat C6 glioma cells (setting [1]) of 0.49 µM.
In the case of `CCOP(=O)(Cc1ccc(NC(=O)/C=C/c2cnn(C)c2-c2ccccc2)cc1)OCC` [Example 11, (2E)-N-[4-(Diethylphosphonomethyl)phenyl]-3-(1-methyl-5-phenyl-1H-pyrazol-4-yl)acrylamide], the melting point was in the range of 239 to 240 °C. In the data set on rat C6 glioma cells (setting [1]), this compound yielded an EC50 of 0.9 µM.
Regarding “(2E)-3-[5-(4-Fluorophenyl)-1-methyl-1H-pyrazol-4-yl]-N-[4-(1-pyrrolidinylmethyl) phenyl]acrylamide [Example 193]”, the EC50 with rat C6 glioma cells was determined as 0.16 µM.
On to `Cn1ncc(/C=C/C(=O)Nc2ccc(Cn3cncn3)cc2)c1-c1ccc(F)cc1` [Example 163, (2E)-3-[5-(4-Fluorophenyl)-1-methyl-1H-pyrazol-4-yl]-N-[4-(1H-1,2,4-triazol-1-ylmethyl)phenyl]acrylamide], for which the melting point is 225 to 226 °C. Further, the EC50 with rat C6 glioma cells (setting [1]) is 0.19 µM.
With `Cc1cc2ncn(Cc3ccc(NC(=O)/C=C/c4cnn(C)c4-c4ccc(F)cc4)cc3)c2cc1C` [Example 172, (2E)-N-(4-[(5,6-Dimethyl-1H-benzimidazol-1-yl)methyl]phenyl}-3-[5-(4-fluorophenyl)-1-methyl-1H-pyrazol-4-yl]acrylamide], the melting point is 279 to 280 °C.
